Data: paper PMC4554999 (Bioorganic & medicinal chemistry, 2015)
Like-named read-outs stand apart in the source and are kept apart here.

How the values were obtained:
[1] = system: nicotine-induced antinociception; assay: Antagonism of nicotine-induced antinociception, tail-flick test; format: in vivo, mouse; details: mice
rat α7-nAChR [2] = target: T1, rat α7-nAChR (Rattus norvegicus, UniProt Q05941); format: cell-based
mice [3] = details: agonist antinociception, ref [5]; cited from earlier work
mice [4] = details: agonist antinociception, ref [5]; cited from earlier work; remark: listed apart in the source
mice [5] = details: ref [5]; cited from earlier work
mice [6] = details: Table 1, head line above prints AD50 (μg/kg), ref [5]; cited from earlier work
rat α7-nAChR [7] = target: T1, rat α7-nAChR; assay: cell-based; details: read-out: antagonist activity at α7-nAChRs, % inhibition
rat α3β4-nAChR = rat α3β4-nAChR (Rattus norvegicus, UniProt P04757+P12392); assay: Electrophysiology; format: cell-based; details: 100 μM compound; rat receptor in Xenopus oocytes
Sequence of rat α3β4-nAChR (P04757 26-499): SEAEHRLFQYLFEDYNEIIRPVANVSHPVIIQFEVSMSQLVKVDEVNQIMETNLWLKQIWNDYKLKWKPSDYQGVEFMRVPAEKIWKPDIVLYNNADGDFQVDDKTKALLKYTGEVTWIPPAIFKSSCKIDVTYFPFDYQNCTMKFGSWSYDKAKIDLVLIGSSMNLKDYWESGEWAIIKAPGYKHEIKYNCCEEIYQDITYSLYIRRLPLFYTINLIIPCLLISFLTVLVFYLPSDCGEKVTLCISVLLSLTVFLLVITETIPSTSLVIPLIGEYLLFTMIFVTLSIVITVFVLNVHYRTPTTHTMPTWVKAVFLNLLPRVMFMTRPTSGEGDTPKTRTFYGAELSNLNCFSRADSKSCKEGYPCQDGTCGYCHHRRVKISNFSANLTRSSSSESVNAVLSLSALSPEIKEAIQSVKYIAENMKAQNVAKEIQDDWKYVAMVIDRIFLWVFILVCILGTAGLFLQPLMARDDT
Sequence of rat α3β4-nAChR (P12392 21-495): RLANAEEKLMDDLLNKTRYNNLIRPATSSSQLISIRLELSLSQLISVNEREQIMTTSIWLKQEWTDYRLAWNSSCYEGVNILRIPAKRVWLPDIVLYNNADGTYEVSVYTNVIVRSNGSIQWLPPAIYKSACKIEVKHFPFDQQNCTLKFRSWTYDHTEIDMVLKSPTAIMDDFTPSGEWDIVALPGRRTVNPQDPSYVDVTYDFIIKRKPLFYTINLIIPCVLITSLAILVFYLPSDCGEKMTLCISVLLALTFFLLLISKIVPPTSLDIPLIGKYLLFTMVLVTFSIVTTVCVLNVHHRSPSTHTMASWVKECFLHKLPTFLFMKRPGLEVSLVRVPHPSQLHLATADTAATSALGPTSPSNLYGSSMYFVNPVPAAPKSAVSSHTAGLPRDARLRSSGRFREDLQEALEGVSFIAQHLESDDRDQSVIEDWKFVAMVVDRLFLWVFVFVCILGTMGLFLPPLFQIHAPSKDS

α4β2*-nAChRs = α4β2*-nAChRs (Rattus norvegicus, UniProt P09483+P12390); assay: biochemical; format: binding
Sequence of α4β2*-nAChRs (P09483 31-630): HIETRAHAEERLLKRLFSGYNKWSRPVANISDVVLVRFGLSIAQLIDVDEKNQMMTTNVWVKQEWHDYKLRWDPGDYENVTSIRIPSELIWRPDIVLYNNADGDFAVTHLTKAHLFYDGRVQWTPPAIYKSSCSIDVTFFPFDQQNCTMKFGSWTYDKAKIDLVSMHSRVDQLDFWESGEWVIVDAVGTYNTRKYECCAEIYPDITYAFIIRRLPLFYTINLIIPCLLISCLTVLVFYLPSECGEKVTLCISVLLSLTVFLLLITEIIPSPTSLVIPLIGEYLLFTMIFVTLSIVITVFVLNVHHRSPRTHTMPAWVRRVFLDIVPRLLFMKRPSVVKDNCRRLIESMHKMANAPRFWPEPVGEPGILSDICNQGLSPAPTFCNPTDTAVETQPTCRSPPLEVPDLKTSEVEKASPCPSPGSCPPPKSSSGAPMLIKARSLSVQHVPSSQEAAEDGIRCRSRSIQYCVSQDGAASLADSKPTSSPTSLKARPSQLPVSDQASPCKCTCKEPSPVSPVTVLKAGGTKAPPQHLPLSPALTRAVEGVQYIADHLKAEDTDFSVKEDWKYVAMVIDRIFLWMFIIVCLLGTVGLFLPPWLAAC
Sequence of α4β2*-nAChRs (P12390 25-500): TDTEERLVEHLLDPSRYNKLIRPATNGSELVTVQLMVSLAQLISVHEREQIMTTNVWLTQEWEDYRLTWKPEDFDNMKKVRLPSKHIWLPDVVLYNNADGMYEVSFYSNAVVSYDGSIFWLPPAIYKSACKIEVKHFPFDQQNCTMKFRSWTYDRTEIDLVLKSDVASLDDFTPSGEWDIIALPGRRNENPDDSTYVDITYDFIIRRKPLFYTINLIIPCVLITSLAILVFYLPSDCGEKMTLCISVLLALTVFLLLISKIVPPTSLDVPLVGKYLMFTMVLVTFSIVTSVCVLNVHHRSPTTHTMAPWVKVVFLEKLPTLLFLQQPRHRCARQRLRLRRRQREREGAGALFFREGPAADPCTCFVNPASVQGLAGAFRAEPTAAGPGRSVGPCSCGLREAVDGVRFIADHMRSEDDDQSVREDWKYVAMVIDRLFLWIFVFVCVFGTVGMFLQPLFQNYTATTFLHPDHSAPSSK

T1 sequence (Q05941 23-502): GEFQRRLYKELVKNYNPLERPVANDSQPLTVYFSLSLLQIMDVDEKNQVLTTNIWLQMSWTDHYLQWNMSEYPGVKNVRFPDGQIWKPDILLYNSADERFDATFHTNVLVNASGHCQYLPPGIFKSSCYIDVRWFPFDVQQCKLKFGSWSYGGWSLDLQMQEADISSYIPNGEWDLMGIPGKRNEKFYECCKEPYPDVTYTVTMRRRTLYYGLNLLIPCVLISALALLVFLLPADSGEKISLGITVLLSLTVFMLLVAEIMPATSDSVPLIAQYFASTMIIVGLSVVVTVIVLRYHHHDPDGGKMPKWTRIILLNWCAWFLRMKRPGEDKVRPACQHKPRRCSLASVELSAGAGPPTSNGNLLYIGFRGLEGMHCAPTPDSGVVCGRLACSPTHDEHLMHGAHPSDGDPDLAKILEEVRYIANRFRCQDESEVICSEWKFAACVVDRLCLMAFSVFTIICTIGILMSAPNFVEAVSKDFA

For c1cc(-c2cncc([C@H]3C[C@H]4CC[C@H]3N4)c2)ccn1 [Compound 5a, 2-exo-[3′-(Pyridin-4-yl)-5′-pyridnyl]-7-azabicyclo[2.2.1]heptane], which “AD50 Tail-Flick” value [1] is on record?
The value was 39 (4–63) μg/kg.

Which “Agonist Activity (% of max ACh at 100 μM) α7” value (rat α7-nAChR [2]) does the source give for Fc1ccc(-c2cncc([C@H]3C[C@H]4CC[C@H]3N4)c2)cn1 [Compound 6b, 2-exo-[3′-(2″-Fluoropyridin-5″-yl)-5′-pyridnyl]-7-azabicyclo[2.2.1]heptane] here?
The value was “little or no agonist activity”.

Which “ED50 Tail-Flick” value (mice [3]) does the source give for CN1CCC[C@H]1c1cccnc1 [nicotine] here?
Its value is 1.3 (0.5–1.8) mg/kg.

What about the “ED50 Hot-Plate” value (mice [4]) of the same compound?
The value was 0.65 (0.25–0.85) mg/kg.

And the “ED50 Hypothermia” value (mice [5])?
The value was 1.0 (0.6–2.1) mg/kg.

And the “ED50 Spontaneous Activity” value (mice [6])?
Its value is 0.5 (0.15–0.78) μg/kg.

Which results are given for COc1ccc(-c2cncc([C@H]3C[C@H]4CC[C@H]3N4)c2)cn1 [Compound 6e, 2-exo-[3′-(2″-Methoxypyridin-5″-yl)-5′-pyridnyl]-7-azabicyclo[2.2.1]heptane]?
AD50 Tail-Flick [1]: 0.5 (0.05–4.7) μg/kg; Agonist Activity (% of max ACh at 100 μM) α7 (rat α7-nAChR [2]; 100 μM compound, rat receptor in Xenopus oocytes): little or no agonist activity; inhibition at 100 µM (rat α7-nAChR [7]): > 80%

For Clc1cc(-c2cncc([C@H]3C[C@H]4CC[C@H]3N4)c2)ccn1 [Compound 5c, 2-exo-[3′-(2-Chloropyridin-4-yl)-5′-pyridnyl]-7-azabicyclo[2.2.1]heptane], which “AD50 Tail-Flick” value [1] is on record?
The value was 110 (20–645) μg/kg.

Which “AD50 Tail-Flick” value [1] does the source give for COc1cc(-c2cncc([C@H]3C[C@H]4CC[C@H]3N4)c2)ccn1 [Compound 5e, 2-exo-[3′-(2-Methoxypyridin-4-yl)-5′-pyridnyl]-7-azabicyclo[2.2.1]heptane] here?
The value was 0.3 (0.04–20) μg/kg.

For Nc1cc(-c2cncc([C@H]3C[C@H]4CC[C@H]3N4)c2)ccn1 [Compound 5d, 2-exo-[3′-(2-Aminopyridin-4-yl)-5′-pyridnyl]-7-azabicyclo[2.2.1]heptane], which “AD50 Tail-Flick” value [1] is on record?
The value was 1 (0.13–1.4) μg/kg.

What about the “Agonist Activity (% of max ACh at 100 μM) α3β4” value (rat α3β4-nAChR) of the same compound?
Its value is “little or no agonist activity”.

Which results are given for c1cncc(-c2cncc([C@H]3C[C@H]4CC[C@H]3N4)c2)c1 [Compound 6a, 2-exo-[3′-(Pyridin-3″-yl)-5′-pyridnyl]-7-azabicyclo[2.2.1]heptane]?
Ki (α4β2*-nAChRs): 120 pM; AD50 Tail-Flick [1]: 0.68 (0.11–4) μg/kg

Which “AD50 Tail-Flick” value [1] does the source give for Clc1ccc(-c2cncc([C@H]3C[C@H]4CC[C@H]3N4)c2)cn1 [Compound 6c, 2-exo-[3′-(2″-Chloropyridin-5″-yl)-5′-pyridnyl]-7-azabicyclo[2.2.1]heptane] here?
The value was 0.5 (0.05–4.7) μg/kg.

Which results are given for Nc1ccc(-c2cncc([C@H]3C[C@H]4CC[C@H]3N4)c2)cn1 [Compound 6d, 2-exo-[3′-(2″-Aminopyridin-5″-yl)-5′-pyridnyl]-7-azabicyclo[2.2.1]heptane]?
AD50 Tail-Flick [1]: 1.5 (0.5–4.1) μg/kg; Agonist Activity (% of max ACh at 100 μM) α3β4 (rat α3β4-nAChR): little or no agonist activity
